Measured values published in patent publication US8354433B2, “Anti-inflammatory agents as virostatic compounds” (4SC AG, priority 2009, dated 2013).
Like-named read-outs stand apart in the source and are kept apart here.

Legend:
[1] = test system: ET cell line (luc-ubi-neo/ET), Huh7; assay: CytoTox-1 cytotoxicity in ET cells; conditions: 24 h, cell unit μM
[2] = test system: HIV-191US005; assay: Anti-HIV efficacy in fresh human PBMCs (RT activity and p24 ELISA); assay type: cell-based, HIV-1; conditions: Human immunodeficiency virus 1, PBMC, 168 h; for EC50: read-out: EC50/nM; for EC90: read-out: EC90/nM
[3] = molecular target: dihydroorotate dehydrogenase (DHODH) (Homo sapiens, UniProt Q02127); assay: DHODH inhibition, in vitro assay; assay type: biochemical
Chain of dihydroorotate dehydrogenase (DHODH) (Q02127 whole entry): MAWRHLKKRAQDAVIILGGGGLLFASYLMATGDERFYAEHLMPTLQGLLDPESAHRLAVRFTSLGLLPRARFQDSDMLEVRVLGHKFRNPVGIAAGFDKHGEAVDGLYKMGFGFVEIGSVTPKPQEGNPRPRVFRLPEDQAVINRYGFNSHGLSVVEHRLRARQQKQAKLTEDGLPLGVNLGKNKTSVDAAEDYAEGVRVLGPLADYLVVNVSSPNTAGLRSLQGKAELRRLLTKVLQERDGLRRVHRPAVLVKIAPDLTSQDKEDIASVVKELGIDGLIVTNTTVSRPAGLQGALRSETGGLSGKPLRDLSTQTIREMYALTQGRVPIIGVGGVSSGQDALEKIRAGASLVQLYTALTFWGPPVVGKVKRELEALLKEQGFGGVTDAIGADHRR

[4] = test system: human PBMCs; assay: MTS cytotoxicity in human PBMCs; conditions: seven days
[5] = test system: HCV subgenomic replicon of genotype 1b; assay: microbe, parasite or virus in culture; assay type: cell-based; conditions: Hepatitis C virus, 24 h, read-out: Antiviral Activity EC50/nM
[6] = test system: WNV Strain NY-99; assay: microbe, parasite or virus in culture; assay type: cell-based; conditions: West Nile virus, Vero, read-out: Antiviral Activity EC50
[7] = Cell viability in HepG2-2.2.15 cells (Cell Titer 96); assay type: cell-based; conditions: human, six days, read-out: TC50
Protocol: Anti-HBV assay was performed as described in Korba, B F and Milman, G., 1991 (A cell culture assay for compound which inhibits hepatitis B virus replication. Antiviral Res. 15: 217-228) and in Korba, B F and Gerin, J L., 1992 (Use of a standardized cell culture assay to assess activities of nucleoside analogs again hepatitis B virus replication. Antiviral Res. 19: 55-70) with modifications to measure extracellular HBV DNA copy with real-time PCR (qPCR/TaqMan). Briefly, HepG2-2.2.15 cells were plated in 96-well microtiter plates. Only the interior wells were utilized to reduce “edge effects” observed during cell culture; the exterior wells were filled with complete medium to help minimize sample evaporation. After 16-24 hours the confluent monolayer of HepG2-2.2.15 cells was washed and the medium was replaced with complete medium containing various concentrations of a test compound in triplicate. 3TC was used as the positive control, while media alone was added to cells as a negative control. Three days later the culture medium was replaced with fresh medium containing the appropriately diluted drug. Six days following the initial administration of the test compound, the cell culture supernatant was collected, treated with pronase and then used in a quantitative qPCR TaqMan assay. Antiviral activity was calculated from the reduction in HBV DNA levels (IC50). Cell Titer 96 ®AQueous One Solution Cell Proliferation kit (Promega, Madison, Wis.) was used to measure cell viability which is used to calculate toxicity (TC50). The therapeutic index (TI) was calculated as TC50/IC50

[8] = test system: RSV Strain Long; assay: microbe, parasite or virus in culture; assay type: cell-based; conditions: human respiratory syncytial virus, Vero, read-out: Antiviral Activity EC50
[9] = test system: DENV Type 2 (New Guinea); assay: microbe, parasite or virus in culture; assay type: cell-based; conditions: Dengue virus, Vero C1008, read-out: Antiviral Activity EC50
[10] = test system: HBV; assay: Anti-HBV evaluation with HepG2 2.2.15 cells (extracellular HBV DNA, qPCR); assay type: cell-based; conditions: Hepatitis B virus, 144 h; HepG2 2.2.15 cells, HBV DNA, six days; read-out: Antiviral Activity EC50
Protocol: Compounds were solubilized in DMSO in a concentration of 40 mM. (−)-2′-Desoxy-3′-thiacytidin (3TC) was used as the positive antiviral controls. The high-test concentrations were 10 μM for 4SC compounds and 1 μM for 3TC.
Briefly, HepG2-2.2.15 cells were plated in 96-well microtiter plates. Only the interior wells were utilized to reduce “edge effects” observed during cell culture; the exterior wells were filled with complete medium to help minimize sample evaporation. After 16-24 hours the confluent monolayer of HepG2-2.2.15 cells was washed and the medium was replaced with complete medium containing various concentrations of a test compound in triplicate. 3TC was used as the positive control, while media alone was added to cells as a negative control. Three days later the culture medium was replaced with fresh medium containing the appropriately diluted drug. Six days following the initial administration of the test compound, the cell culture supernatant was collected, treated with pronase and then used in a quantitative qPCR TaqMan assay. Antiviral activity was calculated from the reduction in HBV DNA levels (IC50). Cell Titer 96 ®AQueous One Solution Cell Proliferation kit (Promega, Madison, Wis.) was used to measure cell viability which is used to calculate toxicity (TC50). The therapeutic index (TI) was calculated as TC50/IC50

[11] = test system: YFV Strain 17D; assay: microbe, parasite or virus in culture; assay type: cell-based; conditions: Yellow fever virus, Vero, read-out: Antiviral Activity EC50
[12] = test system: Influenza Virus (H7N7); assay: microbe, parasite or virus in culture; assay type: cell-based, avian influenza virus (Fowl Plaque Virus; conditions: unidentified influenza virus, H7N7, A549, 16 h; for inhibition at 30 µM: read-out: Antiviral Activity % Inhibition
[13] = Table 2, read-out: DHODH IC50/nM
[14] = Table 8, read-out: DHODH IC50/nM

Row | Structure (SMILES) | EC50 ([2]; Endpoint RT, seven days) [nM] | EC90 ([2]; Endpoint RT, seven days) [nM] | EC50 ([2]; Endpoint p24, seven days) [nM] | EC90 ([2]; Endpoint p24, seven days) [nM] | IC50 ([3]; DHODH IC50/nM, Table 1) [nM] | TC50/nM [4] [nM] | IC50 [3, 14] [nM] | inhibition at 30 µM [12] [%] | also measured
1 | O=C(O)C1=C(C(=O)Nc2c(F)cc(-c3ccccc3Cl)cc2F)CSC1 [Compound 2, 4-(2′-Chloro-3,5-difluoro-biphenyl-4-ylcarbamoyl)-2,5-dihydro-thiophene-3-carboxylic acid] | 920 | 2590 | 1380 | 2770 | < 20 | >100000 |  |  | TC50 [1]: >100 µM; IC50 [3, 13]: < 20 nM; EC50 [5]: 680 nM
2 | O=C(O)C1=C(C(=O)Nc2ccc(OCc3c(F)cccc3Cl)c(Cl)c2)CCC1 [Compound 3, 2-[3-Chloro-4-(2-chloro-6-fluoro-benzyloxy)-phenylcarbamoyl]-cyclopent-1-enecarboxylic acid] | 190 | 700 | 190 | 630 | < 20 | 44800 |  |  | IC50 ([3]; DHODH IC50/nM, Table 7): < 20 nM; IC50 [3, 13]: < 20 nM; IC50 ([3]; Table 3, read-out: DHODH IC50/nM): < 20 nM; IC50 ([3]; Table 4, read-out: DHODH IC50/nM): < 20 nM; IC50 ([3]; Table 5, read-out: DHODH IC50/nM): < 20 nM; IC50 ([3]; Table 6, read-out: DHODH IC50/nM): < 20 nM; EC50 [6]: > 10000 nM; CC50 at 6 days [7]: > 10000 nM; EC50 [8]: > 10000 nM; EC50 [5]: 500 nM; EC50 [9]: 83 nM; EC50 [10]: > 10000 nM; EC50 [11]: 2190 nM
3 | O=C(Nc1ccc(-c2ccccc2)cc1)Nc1ccccc1C(=O)O [Compound 7, 2-(3-biphenyl-4-ylureido)benzoic acid] | 50 | 210 | 60 | 230 | < 20 | >100000 |  |  | 
4 | COc1cccc(-c2c(F)c(F)c(NC(=O)c3occc3C(=O)O)c(F)c2F)c1 [Compound 8, 2-(2,3,5,6-tetrafluoro-3′-methoxybiphenyl-4-ylcarbamoyl)furan-3-carboxylic acid] | 760 | 2700 | 840 | 2970 | < 20 | >100000 | < 20 | > 50 | 
5 | CCOc1cccc(-c2cc(F)c(NC(=O)c3cscc3C(=O)O)c(F)c2)c1 [Compound 9, 4-(3′-ethoxy-3,5-difluorobiphenyl-4-ylcarbamoyl)thiophene-3-carboxylic acid] |  |  |  |  |  |  | < 20 | > 80 | 
6 | COc1cccc(-c2c(F)c(F)c(NC(=O)C3=C(C(=O)O)CCC3)c(F)c2F)c1 [Compound 10, 2-(2,3,5,6-tetrafluoro-3′-methoxybiphenyl-4-ylcarbamoyl)cyclopent-1-enecarboxylic acid] |  |  |  |  |  |  |  | > 80 | 
7 | COc1ccccc1-c1c(F)c(F)c(NC(=O)C2=C(C(=O)O)CCC2)c(F)c1F [Compound 11, 2-(2,3,5,6-tetrafluoro-2′-methoxybiphenyl-4-ylcarbamoyl)cyclopent-1-enecarboxylic acid] |  |  |  |  |  |  | < 20 | > 90 | EC50 [12]: ~3000 nM
8 | O=C(O)C1=C(C(=O)Nc2c(F)cc(-c3cccc(OC(F)(F)F)c3)cc2F)CCC1 [Compound 12, 2-(3,5-difluoro-3′-(trifluoromethoxy)biphenyl-4-ylcarbamoyl)cyclopent-1-enecarboxylic acid] |  |  |  |  |  |  | 20 to 200 | > 80 | 
9 | O=C(O)C1=C(C(=O)Nc2c(F)c(F)c(-c3cccc(OC(F)(F)F)c3)c(F)c2F)C(O)CC1 (centres unmarked) [Compound 13, 3-hydroxy-2-(2,3,5,6-tetrafluoro-3′-(trifluoromethoxy)biphenyl-4-ylcarbamoyl)cyclopent-1-enecarboxylic acid] |  |  |  |  |  |  | < 20 | > 50 | 
10 | COc1ccc(-c2ccc(NC(=O)C3=C(C(=O)O)CCC3)cc2Cl)cc1 [Compound 14, 2-(2-chloro-4′-methoxybiphenyl-4-ylcarbamoyl)cyclopent-1-enecarboxylic acid] | 5240 | 12200 | 5180 | 16600 | 20 to 200 | >100000 | 20 to 200 | > 50 | 
11 | O=C(O)c1cscc1C(=O)Nc1c(F)cc(-c2cccc(OC(F)(F)F)c2)cc1F [Compound 15, 4-(3,5-difluoro-3′-(trifluoromethoxy)biphenyl-4-ylcarbamoyl)thiophene-3-carboxylic acid] |  |  |  |  |  |  | < 20 | > 80 | 
12 | O=C(O)C1=C(C(=O)Nc2ccc(OCc3c(F)cccc3Cl)c(F)c2)CCC1 [Compound 21, 2-[4-(2-Chloro-6-fluoro-benzyloxy)-3-fluoro-phenylcarbamoyl]-cyclopent-1-enecarboxylic acid] |  |  |  |  |  |  |  |  | TC50 [1]: >30 µM; IC50 [3, 13]: 20 to 200 nM; EC50 [5]: 1740 nM
13 | O=C(O)C1=C(C(=O)Nc2cc(Cl)c(OCc3c(F)cccc3Cl)c(Cl)c2)CCC1 [Compound 22, 2-[3,5-Dichloro-4-(2-chloro-6-fluoro-benzyloxy)-phenylcarbamoyl]-cyclopent-1-enecarboxylic acid] |  |  |  |  |  |  |  |  | TC50 [1]: >30 µM; IC50 [3, 13]: 20 to 200 nM; EC50 [5]: 1760 nM
14 | CN(C)c1ccc(-c2ccc(NC(=O)C3=C(C(=O)O)CCC3)cc2Cl)cc1 [Compound 23, 2-(2-Chloro-4′-dimethylamino-biphenyl-4-ylcarbamoyl)-cyclopent-1-enecarboxylic acid] | 1070 | 3480 | 1000 | 3720 | 20 to 200 | >100000 |  |  | 
15 | COc1cccc(-c2ccc(NC(=O)c3ccsc3C(=O)O)c(F)c2)c1 [Compound 24, 3-(3-Fluoro-3′-methoxy-biphenyl-4-ylcarbamoyl)-thiophene-2-carboxylic acid] | 3970 | 9070 | 4540 | 12300 |  | 55800 |  |  | IC50 [3]: 20 to 200 nM
16 | O=C(O)C1=C(C(=O)Nc2c(F)c(F)c(-c3cccc(OC(F)(F)F)c3)c(F)c2F)CSC1 [Compound 25, 4-(2,3,5,6-Tetrafluoro-3′-trifluoromethoxy-biphenyl-4-ylcarbamoyl)-2,5-dihydro-thiophene-3-carboxylic acid] | 1560 | 3020 | 1180 | 3160 | < 20 | >100000 |  |  | 
